These results are taken from US9243036B2, “Anti-microbial activity of synthetic peptides” (THE UNITED STATES OF AMERICA, as represented by the …, priority 2012, dated 2016).

For data set [1] the following is noted: polymyxin B; cited from earlier work.
Data set [2] relates to E. coli and P. aeruginosa. Description: MIC of polymyxin B (bacterium not stated; E. coli / P. aeruginosa context). In kind it is cell-based. The method, then:
In vitro anti-bacterial activity of EC5. The test microorganisms mentioned earlier in the experimental procedures were used to evaluate the bactericidal activity of EC5 peptide. The minimum inhibitory concentrations (MICs) of the peptide were determined by standard dilution assay as recommended by Clinical and Laboratory Standard Institutes (CLSI) guidelines (Azad, M. A., et al., (2011) Antimicrob. Agents Chemother. 55, 2137-2145). Bacteria were grown to mid-logarithmic phase in cation-supplemented Mueller-Hinton broth (MHB) (Becton Dickinson, Sparks, Md.) on an orbital shaker (37° C.) and diluted to a 0.5 McFarland standard to a final volume of 1 ml. Decreasing concentrations of the peptide were incubated with the microorganisms. Results were recorded by visual inspection after 24 h of incubation at 37° C. Assay was repeated three separate times to ensure reproducibility. […]
Cytoplasmic depolarization assay(Δψ) was performed using the membrane potential sensitive dye 3,3′-dipropylthiadicarbocyanine iodide (diSC3-5) (Zang, L. et al., (2001) J. Biol. Chem. 276, 35714-35722). This dye can cross the outer membrane of the bacterial cell and become concentrated in the cytoplasmic membrane and thereby it self-quenches its own fluorescence. Upon addition of a membrane-permeabilizing agent the dye is released with consequent increase in the fluorescence. […]

For data set [3] the following is noted: literature; cited from earlier work.
For data set [4], the system named is E. coli. Description: Cytoplasmic membrane depolarization assay (diSC3-5) with parallel CFU plating. In kind it is cell-based. The method, then: (§1) Membrane depolarization activity (Δψ) of the peptide was determined with intact E. coli and P. aeruginosa cells and the membrane potential-sensitive fluorescent dye, 3,3′-dipropylthiadicarbocyanine Iodide (diSC (3)5) (Invitrogen, Oregon), according to described methods (Sims, P. J., et al (1974) Biochemistry 13, 3315-3330). Briefly, bacterial cells of mid-logarithmic phase were harvested by centrifugation and washed twice with HEPES buffer (5 mM HEPES, 5 mM glucose, pH 7.6). The cells were suspended in the same buffer to an OD of 0.05. The cell suspension was incubated with […] diSC (3)5 until maximal uptake of the dye. 100 mM KCl was added to equilibrate the cytoplasmic and external potassium ion concentration of peptide, and fluorescence was monitored at an excitation wavelength of 622 nm and an emission wavelength of 670 nm. Polymyxin B was used as a positive control and S. aureus cells were used as negative control. Simultaneously the cells were plated on NA plates and incubated at 37° C. overnight to assess the number of CFU.
(§2) Cytoplasmic depolarization assay(Δψ) was performed using the membrane potential sensitive dye 3,3′-dipropylthiadicarbocyanine iodide (diSC3-5) (Zang, L. et al., (2001) J. Biol. Chem. 276, 35714-35722). This dye can cross the outer membrane of the bacterial cell and become concentrated in the cytoplasmic membrane and thereby it self-quenches its own fluorescence. Upon addition of a membrane-permeabilizing agent the dye is released with consequent increase in the fluorescence. EC5 at 8 μg/ml and 16 μg/ml caused rapid depolarization of the cytoplasmic membrane in both E. coli and P. aeruginosa resulting in the release of diSC3-5 within 5 min (FIG. 9C). […] However Polymyxin B even at its MIC of 0.5 μg/ml caused slow release of diSC3-5 when compared to EC5.

Data set [5] has as its system P. aeruginosa. The description is as above. In kind it is cell-based. The method, then: as §1, §2
In data set [6] the test system is E. coli. Description: Membrane permeability by PI and SYTO9 uptake (LIVE/DEAD BACLIGHT). In kind it is cell-based. Conditions: even at the lowest concentration used. The method, then:
(§3) The effects of EC5 on the membrane integrity of E. coli and P. aeruginosa cells were assessed using the LIVE/DEAD BACLIGHT™ kit (Invitrogen, Oregon) according to the manufacturer's protocol. Membrane integrity of the cells after the addition of different concentrations of peptide EC5 was measured using fluorescence micro plate reader (BioTek Instruments, Winooski, Vt.). Experiments were done in triplicates. PMB was used as a positive control.
(§4) The membrane permeabilizing activity of EC5 was also studied using the SYTO9 and PI staining method. SYTO9 stain labels both live and dead bacteria when alone, but propidium iodide stains only cells with damaged membranes, reducing the level of green fluorescent SYTO9 when both the dyes are present. […] The ratio of green versus red fluorescence can be calculated as a measure of live bacteria. […] Polymyxin B, an AMP with a net charge of +5 with membrane permeabilizing activity was used as positive control.

Data set [7] deals with P. aeruginosa. Described as above. Type of data set: cell-based. Conditions: even at the lowest concentration used. The method, then:
as §3, §4

[8] abbreviates: polymyxin B at 3.125 μg/ml, after 5 min of exposure.
The mark [9] stands for this setting: polymyxin B at its MIC of 0.5 μg/ml, compared to EC5.

Polymyxin B: in data set [1], the net charge entry is on record as “+5”. In addition, the “MIC of polymyxin B” value in data set [2] was found to be 0.5 µg/mL. Moreover, the toxicity entry in data set [3] is on record as “high toxicity, especially nephrotoxicity”. Further, the “time to complete inhibition of CFU” value in data set [4] (polymyxin B at 3.125 μg/ml) and in data set [5] (polymyxin B at 3.125 μg/ml) was not above 5 min in each case. Also, the “release of diSC35 from the cells” value in data set [4] (setting [8]) and in data set [5] (setting [8]) was “minimal release” throughout. The “release of diSC3-5” value in data set [4] (setting [9]) and in data set [5] (setting [9]) was “slow release” throughout. Besides, the “permeabilization of bacterial cell membranes” value in data set [6] and in data set [7] was “able to permeabilize almost all bacterial cell membranes” throughout.
